Assays:
Test in all cases: normalised viability (% of control), CellTiter-Blue; higher = more viable cells (about 100 = DMSO control)
[1] = test system: CAL-148; settings: 1 nM; incubation time: 72 h
Procedure, shortened: (§1)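 Each value is normalised viability at a single listed concentration of the series. Breast cancer cell lines in 384-well plates were incubated 72 h with compound and read by CellTiter-Blue fluorescence at 560/590 nm, with vehicle set to 100 and a positive kill control to 0 on every plate.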

[2] = test system: CAL-51; settings: 1 nM; incubation time: 72 h
Procedure, shortened: as §1

[3] = test system: SK-BR-3; settings: 10 nM; incubation time: 72 h
Procedure, shortened: as §1

[4] = test system: CAL-85-1; settings: 1 nM; incubation time: 72 h
Procedure, shortened: as §1

[5] = test system: MDA-MB-436; settings: 10 nM; incubation time: 72 h
Procedure, shortened: as §1

[6] = test system: CAL-120; settings: 10 nM; incubation time: 72 h
Procedure, shortened: as §1

[7] = test system: BT-549; settings: 10 nM; incubation time: 72 h
Procedure, shortened: as §1

[8] = test system: MDA-MB-453; settings: 1 nM; incubation time: 72 h
Procedure, shortened: as §1

[9] = test system: HDQ-P1; settings: 1 nM; incubation time: 72 h
Procedure, shortened: as §1

[10] = test system: MFM-223; settings: 10 nM; incubation time: 72 h
Procedure, shortened: as §1

[11] = test system: HCC1599; settings: 10 nM; incubation time: 72 h
Procedure, shortened: as §1

[12] = test system: MDA-MB-468; settings: 10 nM; incubation time: 72 h
Procedure, shortened: as §1

[13] = test system: MDA-MB-231; settings: 10 nM; incubation time: 72 h
Procedure, shortened: as §1

[14] = test system: Hs578T; settings: 10 nM; incubation time: 72 h
Procedure, shortened: as §1

[15] = test system: BT-474; settings: 10 nM; incubation time: 72 h
Procedure, shortened: as §1

[16] = test system: HCC1937; settings: 10 nM; incubation time: 72 h
Procedure, shortened: as §1

[17] = test system: DU-4475; settings: 1 nM; incubation time: 72 h
Procedure, shortened: as §1

[18] = test system: CAL-148; settings: incubation time: 72 h
Procedure, shortened: as §1

[19] = test system: CAL-51; settings: incubation time: 72 h
Procedure, shortened: as §1

[20] = test system: SK-BR-3; settings: incubation time: 72 h
Procedure, shortened: as §1

[21] = test system: CAL-85-1; settings: incubation time: 72 h
Procedure, shortened: as §1

[22] = test system: MDA-MB-453; settings: incubation time: 72 h
Procedure, shortened: as §1

[23] = test system: MFM-223; settings: incubation time: 72 h
Procedure, shortened: as §1

[24] = test system: HCC1599; settings: incubation time: 72 h
Procedure, shortened: as §1

[25] = test system: MDA-MB-468; settings: incubation time: 72 h
Procedure, shortened: as §1

[26] = test system: MDA-MB-231; settings: incubation time: 72 h
Procedure, shortened: as §1

[27] = test system: Hs578T; settings: incubation time: 72 h
Procedure, shortened: as §1

[28] = test system: BT-474; settings: incubation time: 72 h
Procedure, shortened: as §1

[29] = test system: DU-4475; settings: incubation time: 72 h
Procedure, shortened: as §1

SMILES: Cc1ccc(C(=O)N(CCCN)[C@@H](c2oc3cc(Cl)ccc3c(=O)c2Cc2ccccc2)C(C)C)cc1
- normalised viability [1]: 92.5%
- normalised viability [2]: 103%
- normalised viability [3]: 18%
- normalised viability [4]: 98.7%
- normalised viability [5]: 55.9%
- normalised viability [6]: 31.1%
- normalised viability [7]: 27.4%
- normalised viability [8]: 112%
- normalised viability [9]: 105%
- normalised viability [10]: 41.6%
- normalised viability [11]: 80.5%
- normalised viability [12]: 29.1%
- normalised viability [13]: 27.6%
- normalised viability [14]: 19.5%
- normalised viability [15]: 30.3%
- normalised viability [16]: 25.2%
- normalised viability [17]: 105%
- normalised viability ([18]; 0.3 nM): 93%
- normalised viability ([18]; 3 nM): 106%
- normalised viability ([18]; 10 nM): 16.1%
- normalised viability ([19]; 0.3 nM): 106%
- normalised viability ([19]; 3 nM): 101%
- normalised viability ([19]; 10 nM): 38.6%
- normalised viability ([20]; 1 nM): 45%
- normalised viability ([20]; 100 nM): 20.8%
- normalised viability ([20]; 1000 nM): 18.2%
- normalised viability ([21]; 0.3 nM): 92.9%
- normalised viability ([21]; 3 nM): 90.1%
- normalised viability ([21]; 10 nM): 33%
- normalised viability ([22]; 0.3 nM): 123%
- normalised viability ([22]; 3 nM): 103%
- normalised viability ([22]; 10 nM): 23.8%
- normalised viability ([23]; 1 nM): 105%
- normalised viability ([23]; 100 nM): 43.4%
- normalised viability ([23]; 1000 nM): 40.6%
- normalised viability ([24]; 1 nM): 97.2%
- normalised viability ([24]; 100 nM): 94.1%
- normalised viability ([24]; 1000 nM): 81.7%
- normalised viability ([25]; 1 nM): 88.4%
- normalised viability ([25]; 100 nM): 26.5%
- normalised viability ([25]; 1000 nM): 36.3%
- normalised viability ([26]; 1 nM): 37.1%
- normalised viability ([26]; 100 nM): 25.8%
- normalised viability ([26]; 1000 nM): 24.2%
- normalised viability ([27]; 1 nM): 102%
- normalised viability ([27]; 100 nM): 13.6%
- normalised viability ([27]; 1000 nM): 13.6%
- normalised viability ([28]; 1 nM): 117%
- normalised viability ([28]; 100 nM): 27.5%
- normalised viability ([28]; 1000 nM): 28.7%
- normalised viability ([29]; 0.3 nM): 91.4%
- normalised viability ([29]; 3 nM): 108%
- normalised viability ([29]; 10 nM): 52.9%

SMILES: NC(=O)Nc1cc(-c2cccc(F)c2)sc1C(=O)N[C@H]1CCCNC1 [AZD 7762]
- normalised viability [1]: 105%
- normalised viability [2]: 100%
- normalised viability [3]: 97.6%
- normalised viability [4]: 99.8%
- normalised viability [5]: 96.1%
- normalised viability [6]: 114%
- normalised viability [7]: 120%
- normalised viability [8]: 104%
- normalised viability [9]: 115%
- normalised viability [10]: 96.2%
- normalised viability [11]: 101%
- normalised viability [12]: 107%
- normalised viability [13]: 114%
- normalised viability [14]: 104%
- normalised viability [15]: 124%
- normalised viability [16]: 105%
- normalised viability [17]: 113%
- normalised viability ([18]; 0.3 nM): 110%
- normalised viability ([18]; 3 nM): 106%
- normalised viability ([18]; 10 nM): 111%
- normalised viability ([19]; 0.3 nM): 101%
- normalised viability ([19]; 3 nM): 93.7%
- normalised viability ([19]; 10 nM): 102%
- normalised viability ([20]; 1 nM): 101%
- normalised viability ([20]; 100 nM): 93.2%
- normalised viability ([20]; 1000 nM): 11.5%
- normalised viability ([21]; 0.3 nM): 106%
- normalised viability ([21]; 3 nM): 98.6%
- normalised viability ([21]; 10 nM): 99.4%
- normalised viability ([22]; 0.3 nM): 113%
- normalised viability ([22]; 3 nM): 93.2%
- normalised viability ([22]; 10 nM): 108%
- normalised viability ([23]; 1 nM): 101%
- normalised viability ([23]; 100 nM): 104%
- normalised viability ([23]; 1000 nM): 51.7%
- normalised viability ([24]; 1 nM): 93.2%
- normalised viability ([24]; 100 nM): 73.1%
- normalised viability ([24]; 1000 nM): 53.9%
- normalised viability ([25]; 1 nM): 107%
- normalised viability ([25]; 100 nM): 103%
- normalised viability ([25]; 1000 nM): 22.2%
- normalised viability ([26]; 1 nM): 112%
- normalised viability ([26]; 100 nM): 102%
- normalised viability ([26]; 1000 nM): 31.2%
- normalised viability ([27]; 1 nM): 106%
- normalised viability ([27]; 100 nM): 90%
- normalised viability ([27]; 1000 nM): 27.3%
- normalised viability ([28]; 1 nM): 119%
- normalised viability ([28]; 100 nM): 113%
- normalised viability ([28]; 1000 nM): 106%
- normalised viability ([29]; 0.3 nM): 99.3%
- normalised viability ([29]; 3 nM): 109%
- normalised viability ([29]; 10 nM): 100%

SMILES: CO[C@H]1/C=C\C=C(/C)C(=O)NC2=CC(=O)C(NCCN(C)C)=C(C[C@@H](C)C[C@H](OC)[C@H](O)[C@@H](C)/C=C(\C)[C@@H]1OC(N)=O)C2=O [Alvespimycin]
- normalised viability [1]: 109%
- normalised viability [2]: 90%
- normalised viability [3]: 51.5%
- normalised viability [4]: 97.2%
- normalised viability [5]: 74.9%
- normalised viability [6]: 86.3%
- normalised viability [7]: 43.2%
- normalised viability [8]: 93.4%
- normalised viability [9]: 112%
- normalised viability [10]: 58.3%
- normalised viability [11]: 77%
- normalised viability [12]: 102%
- normalised viability [13]: 97.2%
- normalised viability [14]: 51.5%
- normalised viability [15]: 92.1%
- normalised viability [16]: 55.9%
- normalised viability [17]: 105%
- normalised viability ([18]; 0.3 nM): 107%
- normalised viability ([18]; 3 nM): 102%
- normalised viability ([18]; 10 nM): 101%
- normalised viability ([19]; 0.3 nM): 97%
- normalised viability ([19]; 3 nM): 96%
- normalised viability ([19]; 10 nM): 86.8%
- normalised viability ([20]; 1 nM): 97.7%
- normalised viability ([20]; 100 nM): 19%
- normalised viability ([20]; 1000 nM): 16.3%
- normalised viability ([21]; 0.3 nM): 111%
- normalised viability ([21]; 3 nM): 85.5%
- normalised viability ([21]; 10 nM): 95.1%
- normalised viability ([22]; 0.3 nM): 115%
- normalised viability ([22]; 3 nM): 87.4%
- normalised viability ([22]; 10 nM): 61.7%
- normalised viability ([23]; 1 nM): 97.4%
- normalised viability ([23]; 100 nM): 27.3%
- normalised viability ([23]; 1000 nM): 23.4%
- normalised viability ([24]; 1 nM): 72.9%
- normalised viability ([24]; 100 nM): 43%
- normalised viability ([24]; 1000 nM): 31.3%
- normalised viability ([25]; 1 nM): 111%
- normalised viability ([25]; 100 nM): 44.6%
- normalised viability ([25]; 1000 nM): 29.3%
- normalised viability ([26]; 1 nM): 99%
- normalised viability ([26]; 100 nM): 35.2%
- normalised viability ([26]; 1000 nM): 28.3%
- normalised viability ([27]; 1 nM): 102%
- normalised viability ([27]; 100 nM): 43.6%
- normalised viability ([27]; 1000 nM): 40.1%
- normalised viability ([28]; 1 nM): 116%
- normalised viability ([28]; 100 nM): 28.3%
- normalised viability ([28]; 1000 nM): 27.8%
- normalised viability ([29]; 0.3 nM): 99%
- normalised viability ([29]; 3 nM): 93.1%
- normalised viability ([29]; 10 nM): 84.5%
